{"source": "patent US9573972B2", "about": "“Nurotoxic sterol glycosides” (priority 2008, dated 2017)", "test_system": "Phosphorylated tau aggregates", "assay": "Tau immunohistochemistry", "assay_type": "in vivo, mouse", "set-up": "key to Phosphorylated tau aggregates: − = not present; + = present", "conditions": "for Phosphorylated tau aggregates: SG-fed", "description": "Slide-mounted lumbar and thoracic spinal cord and brain sections were first rinsed for 45 minutes in 3 changes of PBS then quenched in 3% H2O2 in PBST (PBS+0.5% Triton X-100) for 10 minutes. The slides were rinsed for 4 minutes in 2 changes of PBST. The MOM mouse Ig blocking reagent was prepared as per the manufacturer's instructions. Two drops of mouse Ig stock solution was added to 2.5 mL of PBS. The sections were incubated with this solution for 1 hour at RT. Following this step, sections were rinsed for 4 minutes in 2 changes of PBST and incubated (5 minutes) with the MOM diluent solution prepared by adding 600 V1 of MOM protein concentrate to 7.5 mL of PBS. The diluent was tipped off the slides and replaced by a solution comprised of primary phospho-Tau antibody diluted at 1:100 in the diluent solution prepared in the same manner as discussed above. The sections were incubated for 60 minutes at RT. Subsequently, sections were rinsed for 4 minutes in 2 changes of PBST and incubated for 10 minutes in the MOM biotinylated anti-mouse IgG reagent (10 V1 of MOM biotinylated anti-mouse IgG diluted in 2.5 mL of the MOM diluents). The sections were then rinsed in PBST and incubated (1 hour at RT) with the secondary antibody prepared by combining one drop of secondary antibody (biotinylated goat-anti-rabbit IgG) from the Vectastain ABC Elite kit (Vector Laboratories, Burlingame, Calif., USA) was combined with 3 drops of serum stock to 10 mL of PBST. At 30 minutes after start of slide incubation with the secondary antibody, an immunoperoxidase solution was prepared by adding 2 drops of reagent A and 2 drops of reagent B (Vectastain Elite ABC kit, Vector Laboratories, Burlingame, Calif., USA) to 2.5 mL of PBST. After one hour incubation of the slides with the secondary antibody solution, the slides were rinsed for 4 minutes in two changes of PBST and incubated for 30 minutes in the working immunoperoxidase solution. Next, the sections were rinsed for 4 minutes in 2 changes of PBST. During the rinses, the DAB liquid substrate was prepared for the next step. As per manufacturer's instructions, 2 drops of buffer stock solution, 5 mL of ddH2O, 4 drops of DAB stock solution, and 2 drops of hydrogen peroxide solution were combined. The slides were incubated for 3 minutes at RT with this DAB solution and monitored for color development. The sections were rinsed for 5 minutes in ddH2O to stop the reaction and rid slides of DAB substrate. A methyl green nuclear counterstain was used to elucidate nuclei and motor neuron somata. The 0.5% methyl green counterstain was prepared in the following manner: First, the sodium acetate buffer was prepared with 1.36 g of sodium acetate trihydrate to 100 mL of distilled water adjusted to pH 4.2 using glacial acetic acid. For every 100 mL of buffer, 0.5 g of methyl green (ethyl violet, Sigma-Aldrich, Oakville, ON, Canada) was added to make a 0.5% methyl green solution. Slide-mounted sections were stained in the above methyl green solution for 5 minutes at RT. Sections were rinsed in distilled water, until the water became clear. […]\nThe numbers of immunoreactive somata or inclusions were counted across the ventral horn of the spinal cord, across brain hemispheres, or per dorsal or ventral root with the 40× objective lens in a 600 μm/600 μm area within region perimeters defined by a mouse brain atlas (2001). […]", "note": "Entries after “also recorded” stand apart in the source; their conditions may differ."}
{"smiles": "CC[C@H](/C=C/[C@@H](C)[C@H]1CC[C@H]2[C@@H]3CC=C4C[C@@H](O[C@@H]5O[C@H](CO)[C@@H](O)[C@H](O)[C@H]5O)CC[C@]4(C)[C@H]3CC[C@]12C)C(C)C", "note": "[SG, Stigmasterol β-D-Glucopyranoside]", "values": [{"measurement": "Apoptosis of phosphorylated-tau containing cells", "setting": "SG-fed animals at 52 weeks", "value": "majority of the phosphorylated-tau containing cells were actively undergoing apoptosis"}, {"measurement": "Phosphorylated tau aggregates", "setting": "Time-point 1 (35 wk)", "value": "−"}, {"measurement": "Phosphorylated tau aggregates", "setting": "Time-point 2 (52 wk)", "value": "+"}, {"measurement": "Phosphorylated tau aggregates, incidence in SG-fed group", "setting": "Time-point 2 (52 wk)", "value": "2/8"}, {"measurement": "Accumulation of phosphorylated tau", "setting": "ventral horn of lumbar spinal cord, SG-fed mice, none in non-treated mice", "value": "induced accumulation of phosphorylated tau; also recorded: Phosphorylated Tau aggregates were observed"}]}
